From ChEMBL document CHEMBL1139756, “Synthesis and structure-activity relationship of novel indene N-oxide derivatives as potent peroxisome proliferator activated receptor gamma (PPARgamma) agonists” (Bioorg Med Chem Lett, 2007)

What follows are molecules tested against T1, Peroxisome proliferator-activated receptor gamma (Homo sapiens, UniProt P37231).
T1 sequence (P37231 whole entry): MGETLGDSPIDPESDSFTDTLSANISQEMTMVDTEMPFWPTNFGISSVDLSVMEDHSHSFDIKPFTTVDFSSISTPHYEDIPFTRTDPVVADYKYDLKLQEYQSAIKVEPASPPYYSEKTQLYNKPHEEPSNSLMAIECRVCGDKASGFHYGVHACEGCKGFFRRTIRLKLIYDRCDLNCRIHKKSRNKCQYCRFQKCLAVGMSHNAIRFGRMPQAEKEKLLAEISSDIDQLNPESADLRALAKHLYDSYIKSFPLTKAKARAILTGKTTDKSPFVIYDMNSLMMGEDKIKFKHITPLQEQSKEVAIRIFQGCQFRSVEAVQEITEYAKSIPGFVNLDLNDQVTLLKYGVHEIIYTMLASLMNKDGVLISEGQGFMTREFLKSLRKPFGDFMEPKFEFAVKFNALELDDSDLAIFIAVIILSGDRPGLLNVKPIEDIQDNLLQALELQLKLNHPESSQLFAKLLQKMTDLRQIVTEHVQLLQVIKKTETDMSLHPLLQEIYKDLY
Description: Agonist activity at human PPARgamma expressed in NIH3T3 cells by GAL4 transactivation assay

EC50 [nM]	Compound
660	CCOC(=O)C1=C(c2ccc(C)cc2)c2ccc(OCCCc3ccccc3)cc2/C1=[N+](/C)[O-]
> 10000	CCOC(=O)C1=C(c2ccccc2)c2ccc(OC)cc2/C1=[N+](\[O-])Cc1ccccc1
300	CCOC(=O)C1=C(c2cccc(C)c2)c2ccc(OCCCc3ccccc3)cc2/C1=[N+](/C)[O-]
> 10000	CCOC(=O)C1=C(c2ccccc2)c2ccc(OC)cc2/C1=N\O
> 10000	CCOC(=O)C1=C(c2ccccc2)c2ccc(OC)cc2/C1=[N+](\[O-])CC
1500	CCOC(=O)C1=C(c2ccccc2)c2ccc(OC)cc2/C1=N\OC

More lines, now with the values behind:

Compound	EC50 [nM]
CCOC(=O)C1=C(c2ncc[nH]2)c2ccc(OCCCc3ccccc3)cc2/C1=[N+](/C)[O-]	> 1000
CCOC(=O)C1=C(c2ccccc2)c2ccc(OCCC34CC5CC(CC(C5)C3)C4)cc2/C1=[N+](/C)[O-]	840
CCOC(=O)C1=C(c2ccc(Cl)cc2)c2ccc(OCCCc3ccccc3)cc2/C1=[N+](/C)[O-]	70
CCOC(=O)C1=C(CC)c2ccc(OCCCc3ccccc3)cc2/C1=[N+](/C)[O-]	80
C/[N+]([O-])=C1\C=C(c2ccccc2)c2ccc(OCCN3CCOCC3)cc21	150
COC(=O)C1=C(c2ccccc2)c2ccc(OCCN3CCOCC3)cc2/C1=[N+](/C)[O-]	140
C/[N+]([O-])=C1\C(C(=O)NC2CC2)=C(c2ccccc2)c2ccc(OCCN3CCOCC3)cc21	20
CCOC(=O)C1=C(c2ccsc2)c2ccc(OCCCc3ccccc3)cc2/C1=[N+](/C)[O-]	190
CCOC(=O)C1=C(c2ccc3c(c2)OCO3)c2ccc(OCCCc3ccccc3)cc2/C1=[N+](/C)[O-]	250
CCOC(=O)C1=C(c2ccccc2)c2ccc(OCc3ccccn3)cc2/C1=[N+](/C)[O-]	90
